Laboratory results taken from US6528517B1, “Synthesis of quinobenzoxazine analogues with topoisomerase II and quadruplex interactions for use as antineoplastic agents” (Board of Regents, The University of Texas System, priority 1998, dated 2003).

Key:
Drosophila topo II = target: T1, Drosophila topo II (Drosophila melanogaster, UniProt P15348); test: Topo II cleavage reaction; format: biochemical; settings: up to 10 μM
T1 construct: purchased Amersham
T1 sequence (P15348 1-1447): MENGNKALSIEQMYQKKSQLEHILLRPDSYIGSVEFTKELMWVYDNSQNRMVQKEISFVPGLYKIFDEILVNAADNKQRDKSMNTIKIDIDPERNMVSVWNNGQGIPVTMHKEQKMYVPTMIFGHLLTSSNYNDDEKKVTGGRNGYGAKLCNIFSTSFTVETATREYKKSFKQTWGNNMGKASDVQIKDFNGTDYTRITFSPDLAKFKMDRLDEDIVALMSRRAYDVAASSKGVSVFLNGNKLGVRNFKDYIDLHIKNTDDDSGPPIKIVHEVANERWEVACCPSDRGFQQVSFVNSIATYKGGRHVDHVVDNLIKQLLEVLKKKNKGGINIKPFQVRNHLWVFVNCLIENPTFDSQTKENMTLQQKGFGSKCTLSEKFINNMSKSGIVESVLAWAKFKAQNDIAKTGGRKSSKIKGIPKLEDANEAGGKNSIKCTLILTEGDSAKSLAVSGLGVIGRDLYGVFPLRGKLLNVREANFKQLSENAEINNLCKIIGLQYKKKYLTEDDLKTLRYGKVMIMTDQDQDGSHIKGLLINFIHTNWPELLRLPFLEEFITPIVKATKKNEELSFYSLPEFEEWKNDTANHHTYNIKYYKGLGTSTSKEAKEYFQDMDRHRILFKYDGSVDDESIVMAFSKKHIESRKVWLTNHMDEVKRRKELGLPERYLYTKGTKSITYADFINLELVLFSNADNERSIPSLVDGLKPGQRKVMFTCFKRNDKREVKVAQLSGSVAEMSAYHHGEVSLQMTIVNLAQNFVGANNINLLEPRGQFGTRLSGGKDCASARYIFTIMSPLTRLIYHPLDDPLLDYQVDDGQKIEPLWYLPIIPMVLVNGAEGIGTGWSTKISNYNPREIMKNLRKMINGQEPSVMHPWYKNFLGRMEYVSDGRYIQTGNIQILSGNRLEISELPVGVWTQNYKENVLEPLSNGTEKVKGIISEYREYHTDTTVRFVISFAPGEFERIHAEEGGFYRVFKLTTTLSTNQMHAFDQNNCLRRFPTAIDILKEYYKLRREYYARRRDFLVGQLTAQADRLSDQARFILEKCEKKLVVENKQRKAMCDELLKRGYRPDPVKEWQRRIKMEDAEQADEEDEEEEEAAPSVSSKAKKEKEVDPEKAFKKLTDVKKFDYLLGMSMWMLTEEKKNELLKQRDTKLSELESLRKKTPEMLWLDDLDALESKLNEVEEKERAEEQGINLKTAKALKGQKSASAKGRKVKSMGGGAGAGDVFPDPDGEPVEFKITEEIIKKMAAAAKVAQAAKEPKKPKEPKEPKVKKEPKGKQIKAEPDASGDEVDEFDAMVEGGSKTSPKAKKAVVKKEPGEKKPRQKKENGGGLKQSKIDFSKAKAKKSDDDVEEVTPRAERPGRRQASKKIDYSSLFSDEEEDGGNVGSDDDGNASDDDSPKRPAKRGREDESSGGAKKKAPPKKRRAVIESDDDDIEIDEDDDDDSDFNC
Description: FIGS. 5, A-B. Effect of A-62176 (I in FIG. 2) on DNA cleavage by topo II in the presence of ATP. (A) Autoradiogram of a 12% denaturing polyacrylamide gel showing topo II-mediated cleavage pattern in the presence of A-62176. The cleavage reaction was done in a reaction buffer containing 10 mM imidazole-HCl (pH 6.0), 10 mM MgCl2, 50 mM KCl, and 1 mM ATP, as described in the Materials and Methods section. Lanes 1-7 contain 20 units of Drosophila topo II. Lane 1 contains no drug. Lanes 2-7 contain 0.2, 0.5, 1, 2, 5 and 10 μM of A-62176, respectively. (B) Topo II cleavage products indicated by arrows in (A) were quantitated using a PhosphorImager and analyzed using ImageQuanNT software (Molecular Dynamics). The intensity of the topo II-mediated cleavage was determined from the volume of the bands [indicated by arrows in (A)] normalized by the total radioactivity in each lane.
5′^32P-labeled DNA was incubated with Drosophila topo II in 20 μl of a reaction buffer [10 mM imidazole-HCl (pH 6.0), 10 mM MgCl2, 50 mM KCl, and 1 mM ATP] at 30° C. for 10 min in the presence of various amounts of A-62176. Reactions were terminated by adding SDS to 1%, and topo II was removed by proteinase K digestion (100 μg/ml) at 42° C. for 1 hr followed by phenol/chloroform extraction and ethanol precipitation.

human topoisomerase II = target: T2, human topoisomerase II (Homo sapiens, UniProt P11388); test: Decatenation assay (catenated to decatenated KDNA); format: biochemical; settings: drug concentration that inhibits 50% of conversion of catenated to decatenated KDNA; read-out: topoisomerase II inhibition IC50
T2 construct: purchased TopoGEN, Inc
Description: Kinetoplast DNA (KDNA), human topoisomerase II (170 KDa form), and DNA Unwinding Kit including supercoiled pHOT1 DNA, relaxed DNA marker, buffers, and human topoisomerase I were purchased from TopoGEN, Inc. Agarose was purchased from Fisher. Quinobenzoxazine A-62176 (S-enantiomer) was provided by Abbott Laboratories or prepared by published procedure (Chu and Maleczka, Jr., 1987).
0.25 μg of KDNA was incubated with various concentrations of the quinobenzoxazines in a 20-μl reaction mixture containing 50 mM Tris-HCl (pH 8), 120 mM KCl, 10 mM MgCl2, and 0.5 mM each of ATP, dithiothreitol, and […] BSA for 10 min. Two units of human topoisomerase II (170 KDa form) were added to the mixture, which was then incubated at 37° C. for 30 min. The reaction was terminated with 0.1 volume of stop buffer (5% sarkosyl, 0.025% bromophenol blue, and 50% glycerol). The decatenation products were analyzed on 1% agarose gels run with 0.5 μg/ml ethidium bromide. The gels were scanned by FluoroImager and analyzed by ImageQuaNT software (Molecular Dynamics).

T2 sequence (P11388 whole entry): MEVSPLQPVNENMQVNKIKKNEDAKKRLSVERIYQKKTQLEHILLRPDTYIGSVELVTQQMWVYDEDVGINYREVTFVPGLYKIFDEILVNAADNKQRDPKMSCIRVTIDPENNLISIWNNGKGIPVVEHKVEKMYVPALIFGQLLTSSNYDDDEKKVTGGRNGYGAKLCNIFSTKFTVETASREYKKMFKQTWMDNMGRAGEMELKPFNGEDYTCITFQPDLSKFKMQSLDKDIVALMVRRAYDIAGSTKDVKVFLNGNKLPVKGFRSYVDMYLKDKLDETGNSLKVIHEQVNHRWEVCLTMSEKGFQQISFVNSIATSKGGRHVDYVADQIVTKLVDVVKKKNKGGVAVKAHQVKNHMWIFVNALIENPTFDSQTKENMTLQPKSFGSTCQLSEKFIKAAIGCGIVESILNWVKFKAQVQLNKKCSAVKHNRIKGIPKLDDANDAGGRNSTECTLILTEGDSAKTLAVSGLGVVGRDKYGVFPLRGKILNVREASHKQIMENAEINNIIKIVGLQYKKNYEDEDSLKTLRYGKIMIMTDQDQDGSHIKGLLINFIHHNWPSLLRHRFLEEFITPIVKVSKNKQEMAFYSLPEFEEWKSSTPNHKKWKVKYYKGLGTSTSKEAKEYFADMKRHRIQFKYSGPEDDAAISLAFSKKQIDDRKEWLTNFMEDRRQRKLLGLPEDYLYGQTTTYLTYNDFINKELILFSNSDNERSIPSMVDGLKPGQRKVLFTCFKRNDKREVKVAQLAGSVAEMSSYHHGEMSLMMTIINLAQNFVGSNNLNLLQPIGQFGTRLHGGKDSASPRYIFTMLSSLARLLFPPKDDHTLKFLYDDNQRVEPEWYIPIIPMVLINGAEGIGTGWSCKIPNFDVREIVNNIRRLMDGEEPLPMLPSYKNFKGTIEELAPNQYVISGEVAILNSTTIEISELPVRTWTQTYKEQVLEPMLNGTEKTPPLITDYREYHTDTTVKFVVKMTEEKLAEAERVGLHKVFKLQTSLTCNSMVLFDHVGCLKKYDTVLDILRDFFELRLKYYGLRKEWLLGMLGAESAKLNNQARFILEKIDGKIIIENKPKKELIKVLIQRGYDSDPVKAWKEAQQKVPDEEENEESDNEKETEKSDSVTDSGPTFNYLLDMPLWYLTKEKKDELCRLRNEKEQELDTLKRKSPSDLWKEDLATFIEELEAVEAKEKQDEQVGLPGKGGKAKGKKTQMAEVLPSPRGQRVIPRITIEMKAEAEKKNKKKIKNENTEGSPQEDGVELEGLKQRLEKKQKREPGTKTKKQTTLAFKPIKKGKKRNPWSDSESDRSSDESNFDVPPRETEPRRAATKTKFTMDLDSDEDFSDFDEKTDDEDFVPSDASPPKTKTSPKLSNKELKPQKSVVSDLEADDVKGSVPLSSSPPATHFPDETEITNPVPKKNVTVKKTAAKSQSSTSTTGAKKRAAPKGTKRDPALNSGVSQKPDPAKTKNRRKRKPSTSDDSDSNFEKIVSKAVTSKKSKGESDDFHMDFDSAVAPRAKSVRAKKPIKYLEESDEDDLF

- topo II-mediated cleavage (Drosophila topo II): enhance
- IC50 (human topoisomerase II): 510 nM
SMILES: N[C@H]1CCN(c2c(F)cc3c(=O)c(C(=O)O)cn4c3c2Oc2ccccc2-4)C1 [Compound A-62176, 1-(3-aminopyrrolidin-1-yl)-2-fluoro-4-oxo-4H-quino[2,3,4-i,j][1,4]benzoxazine-5-carboxylic acid, reference compound]
